Assay: Case treatment of a patient with confirmed anti-NMDAR encephalitis
Assay type: in vivo
Conditions: for response to antipsychotics: high doses: aripiprazole 20-30 mg, clozapine 300-500 mg, clozapine 500 mg plus paliperidone 9 mg, before the diagnosis was confirmed

O=C([O-])c1ccccc1.[Na+] [Sodium benzoate, sodium benzoate]
clinical improvement (sodium benzoate 1000 mg per day for 2 months, patient able to return to a normal life): obvious clinical improvement
psychotic symptoms including dissociation and agitation (sodium benzoate 1000 mg per day for 2 months, patient refractory to antipsychotics, ECT and immunotherapy): reduced

O=C1CCc2ccc(OCCCCN3CCN(c4cccc(Cl)c4Cl)CC3)cc2N1 [aripiprazole]
response to antipsychotics: very poor response

Cc1nc2n(c(=O)c1CCN1CCC(c3noc4cc(F)ccc34)CC1)CCCC2O (stereo not shown) [paliperidone]
response to antipsychotics: very poor response

Reference: US20210228515A1, “BENZOIC ACID OR A SALT AND DERIVATIVE THEREOF FOR USE IN PREVENTING OR TREATING ANTI-N-METHYL-D-ASPARTATE RECEPTOR ENCEPHALITIS” (EXCELSIOR PHARMATECH LABS, priority 2018, published 2021)
